The text below walks through data of BindingDB's records for doi:10.1021/jm00087a005 (Nova Pharmaceutical, 1992).

Holding throughout (assay): Potency at the sigma binding site was determined in radioligand
Assay [1] deals with sigma receptor, [3H]-(+)-3-PPP site (Cavia porcellus).
Assay [2] deals with sigma receptor, [3H]DTG site (Cavia porcellus).
Assay [3] has as its target sigma receptor, [3H]-(+)-3-PPP site (Cavia porcellus). This is another data set of the same source.

Broadly, the IC50 is the concentration at which inhibition is half-maximal. Read a high IC50 as weaker potency in that assay.

Turning to `O=c1cc(-c2ccccc2)oc2cccc(OCCCN3CCC(O)CC3)c12`, the IC50 in assay [1] was determined as 91 nM; in assay [2] it was 125 nM.
With `CN(C)CCCCOc1ccc2oc(-c3ccccc3)cc(=O)c2c1`, the IC50 in assay [2] is 720 nM; in assay [3] it was 400 nM.
For `O=c1cc(C2CCCCC2)oc2ccc(OCCCCCCN3CCC(O)CC3)cc12`, in that order: 88 nM and 46 nM.
As for `O=c1cc(C2CCCC2)oc2ccc(OCCCCCCN3CCCCC3)cc12`, the IC50 in assay [2] came to 26 nM; in assay [3], 38 nM.
For `COc1cccc(-c2cc(=O)c3cc(OCCCCCCN4CCC(O)CC4)ccc3o2)c1`, in that order: 76 nM and 111 nM.
For `O=c1cc(-c2ccccc2)oc2ccc(OCCCN3CCC(O)CC3)cc12`, in that order: 130 nM and 123 nM.
For `O=c1cc(C2CCCCC2)oc2ccc(OCCCCCCN3CCOCC3)cc12`, in that order: 239 nM and 95 nM.
In the case of `CCOC(=O)C1CCN(CCCCCCOc2ccc3oc(-c4ccccc4)cc(=O)c3c2)CC1`, the half-inhibitory concentration (IC50) is 164 nM in assay [2] and 102 nM in assay [3].
For `O=c1cc(-c2ccccc2)oc2ccc(OCCCCCCN3CCCC(O)C3)cc12` (stereo not given), in that order: 86 nM and 77 nM.
In the case of `CN(C)CCCCCCCCCOc1ccc2oc(-c3ccccc3)cc(=O)c2c1`, the IC50 in assay [2] was found to be 334 nM; in assay [3] it was 202 nM.
For `CN(C)CCCCCCCCCCOc1ccc2oc(-c3ccccc3)cc(=O)c2c1`, in that order: 297 nM and 341 nM.
Regarding `CN(C)CCCCCCCOc1ccc2oc(-c3ccccc3)cc(=O)c2c1`, the IC50 was determined as 165 nM in assay [2] and 188 nM in assay [3].
In the case of `O=c1cc(C2CCCC2)oc2ccc(OCCCCCCN3CCC(O)CC3)cc12`, the IC50 in assay [2] was determined as 51 nM; in assay [3], 55 nM.
In the case of `O=c1cc(-c2ccccc2)oc2cc(OCCCCCCCN3CCC(O)CC3)ccc12`, the IC50 in assay [1] is 19 nM; in assay [2], 16 nM.
With `O=c1cc(C2CCCCC2)oc2ccc(OCCCCCCN3CCCCC3)cc12`, the IC50 in assay [2] turned out to be 55 nM; in assay [3], 32 nM.
For `O=c1cc(-c2ccc(F)cc2)oc2ccc(OCCCCCCN3CCC(O)CC3)cc12`, in that order: 95 nM and 132 nM.
For the compound `CN(C)CCOc1ccc2oc(-c3ccccc3)cc(=O)c2c1`, the figures for the IC50 in assay [2] and in assay [3] were 590 nM and 40 nM, respectively.
Regarding `O=c1cc(-c2ccccc2)oc2ccc(OCCCCCCN3CCC(O)CC3)cc12`, the IC50 in assay [1] stood at 121 nM; in assay [2] it was 100 nM.
For `O=c1cc(-c2ccncc2)oc2ccc(OCCCCCCN3CCC(O)CC3)cc12`, in that order: 308 nM and 159 nM.
As to `O=c1cc(-c2cccnc2)oc2ccc(OCCCCCCN3CCCCC3)cc12`, the figures for the IC50 in assay [2] and in assay [3] were 119 nM and 192 nM, respectively.
Regarding `O=c1cc(-c2cccs2)oc2ccc(OCCCCCCN3CCC(O)CC3)cc12`, the values for the IC50 in assay [1] and in assay [2] were 232 nM and 119 nM, respectively.
In turn, `O=c1cc(-c2ccccc2)oc2ccc(OCCCCCCN3CCNCC3c3ncccn3)cc12` (stereo not given) registered an IC50 in assay [3] of 14200 nM.
For the compound `COc1ccc(-c2cc(=O)c3cc(OCCCCCCN4CCC(O)CC4)ccc3o2)cc1`, the IC50 is 254 nM in assay [2] and 332 nM in assay [3].
For `CC(C)Cc1cc(=O)c2cc(OCCCCCN3CCC(O)CC3)ccc2o1`, in that order: 139 nM and 261 nM.
For `O=c1cc(-c2ccccc2)oc2cc(OCCCCCCN3CCC(O)CC3)ccc12`, in that order: 45 nM and 70 nM.
For `CCN(CC)CCCCCCOc1ccc2oc(-c3ccccc3)cc(=O)c2c1`, the IC50 in assay [1] is 100 nM; in assay [2], 91 nM.
On to `O=c1cc(-c2ccc(Cl)cc2)oc2ccc(OCCCCCCN3CCC(O)CC3)cc12`, for which the values for the IC50 in assay [2] and in assay [3] were 195 nM and 164 nM, respectively.
In the case of `O=c1cc(-c2ccccc2Cl)oc2ccc(OCCCCCCN3CCC(O)CC3)cc12`, the IC50 in assay [1] was 29 nM; in assay [2], 47 nM.
With `CN(C)CCCCCCOc1ccc2oc(-c3ccccc3)cc(=O)c2c1`, the IC50 is 335 nM in assay [1] and 432 nM in assay [2].
As for `O=c1cc(-c2ccccc2)oc2cccc(OCCCCN3CCC(O)CC3)c12`, the half-maximal inhibitory concentration (IC50) in assay [2] was determined as 58 nM. This lies in the double-digit nanomolar range.
With `O=c1cc(-c2cccnc2)oc2ccc(OCCCCCCN3CCC(O)CC3)cc12`, the half-maximal inhibitory concentration (IC50) is 194 nM in assay [2] and 210 nM in assay [3].
Consider `O=c1cc(-c2ccccc2)oc2cccc(OCCCCCCCN3CCC(O)CC3)c12`, for which the figures for the half-inhibitory concentration (IC50) in assay [1] and in assay [2] were 65 nM and 36 nM, respectively.
For `COc1ccc(-c2cc(=O)c3cc(OCCCCCN4CCC(O)CC4)ccc3o2)cc1`, the IC50 in assay [2] was determined as 493 nM; in assay [3] it was 600 nM.
For `O=c1cc(-c2ccccc2)oc2ccc(OCCCCCCN3CCCCC3)cc12`, in that order: 101 nM and 54 nM.
For `CN(C)CCCCCCCCOc1ccc2oc(-c3ccccc3)cc(=O)c2c1`, in that order: 227 nM and 143 nM.
For `CN(CCCCCCOc1ccc2oc(-c3ccccc3)cc(=O)c2c1)Cc1ccccc1`, in that order: 52 nM and 75 nM.
